Each compound was assayed on HIV (assay: MT4 assay: antiviral HIV activity (cell protection, cell titer glo readout at 96 hours)). Details: Human immunodeficiency virus 1, MT4, 96 h, MT4 cells, cell titer glo readout at 96 hours, 10 point dose response; read-out: HIV MT4 Assay IC50.
Type: cell-based
Procedure, shortened: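 MT-4 cells infected with HIV, with inhibition readout by CellTiter-Glo luminescence at 96 h relative to no-compound control. Cytotoxicity measured in parallel under the same conditions. IC50 from a 10-point, 3-4-fold dilution series spanning >1000-fold, fitted with a four-parameter logistic equation.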

SMILES	IC50 [nM]
Cc1nc2c(cc(-c3nc(N4CC[C@@H](N(C)C)C4)ns3)n2C)c(-c2cc(F)c3c(c2C)CCCO3)c1[C@H](OC(C)(C)C)C(=O)O [Example 401]	12.8
Cc1nc2c(cc(-c3nc(N4CCC(N5CCCC5)CC4)ns3)n2C)c(-c2cc(F)c3c(c2C)CCCO3)c1[C@H](OC(C)(C)C)C(=O)O [Example 402]	15
Cc1nc2c(cc(-c3nc(N4CCC4)ns3)n2C)c(-c2cc(F)c3c(c2C)CCCO3)c1[C@H](OC(C)(C)C)C(=O)O [Example 403]	12.9
COC[C@@H]1CCCN1c1nsc(-c2cc3c(-c4cc(F)c5c(c4C)CCCO5)c([C@H](OC(C)(C)C)C(=O)O)c(C)nc3n2C)n1 [Example 404]	12.8
Cc1nc2c(cc(-c3nc(N4CCN(CCN5CCOCC5)CC4)ns3)n2C)c(-c2cc(F)c3c(c2C)CCCO3)c1[C@H](OC(C)(C)C)C(=O)O [Example 405]	2.7
Cc1nc2c(cc(-c3nc(NCCS(C)(=O)=O)ns3)n2C)c(-c2cc(F)c3c(c2C)CCCO3)c1[C@H](OC(C)(C)C)C(=O)O [Example 406]	39.2
Cc1nc2c(cc(-c3nc(NC4CCOCC4)ns3)n2C)c(-c2cc(F)c3c(c2C)CCCO3)c1[C@H](OC(C)(C)C)C(=O)O [Example 407]	25.4
Cc1nc2c(cc(-c3csc(N4CCN(C5CCOCC5)CC4)n3)n2C)c(-c2cc(F)c3c(c2C)CCCO3)c1[C@H](OC(C)(C)C)C(=O)O [Example 408]	2.7
Cc1nc2c(cc(/C=C/C(=O)NCC3CCCCC3)n2C)c(-c2cc(F)c3c(c2C)CCCO3)c1[C@H](OC(C)(C)C)C(=O)O [Example 414]	17
Cc1nc2c(cc(/C=C/C(=O)NCC3CC3)n2C)c(-c2cc(F)c3c(c2C)CCCO3)c1[C@H](OC(C)(C)C)C(=O)O [Example 415]	40.1
Cc1nc2c(cc(/C=C/C(=O)NCCC(C)(C)C)n2C)c(-c2cc(F)c3c(c2C)CCCO3)c1[C@H](OC(C)(C)C)C(=O)O [Example 416]	26.7
Cc1nc2c(cc(/C=C/C(=O)NCc3ccc(F)cc3)n2C)c(-c2cc(F)c3c(c2C)CCCO3)c1[C@H](OC(C)(C)C)C(=O)O [Example 417]	33.7
Cc1nc2c(cc(/C=C/C(=O)NCCO)n2C)c(-c2cc(F)c3c(c2C)CCCO3)c1[C@H](OC(C)(C)C)C(=O)O [Example 418]	3440
Cc1nc2c(cc(/C=C/C(=O)NCCN3CCCC3=O)n2C)c(-c2cc(F)c3c(c2C)CCCO3)c1[C@H](OC(C)(C)C)C(=O)O [Example 419]	3240
Cc1ccc(-c2c([C@H](OC(C)(C)C)C(=O)O)c(C)nc3c2cc(-c2ccnc(-c4ccc5c(cnn5C)c4)c2)n3C)cc1 [Example 421]	7.6
Cc1nc2c(cc(-c3ccnc(-c4ccc5c(cnn5C)c4)c3)n2C)c(-c2ccc3c(c2Cl)NCCO3)c1[C@H](OC(C)(C)C)C(=O)O [Example 422]	1.5
Cc1nc2c(cc(-c3ccnc(-c4ccc5c(cnn5C)c4)c3)n2C)c(-c2ccc3c(c2C)NCCO3)c1[C@H](OC(C)(C)C)C(=O)O [Example 423]	1.8
Cc1nc2c(cc(-c3ccnc(-c4ccc5c(cnn5C)c4)c3)n2C)c(-c2ccccc2)c1[C@H](OC(C)(C)C)C(=O)O [Example 424]	46.4

SMILES	IC50 [nM]
Cc1nc2c(cc(-c3ccnc(-c4ccc5c(cnn5C)c4)c3)n2C)c(C2=CCCCC2)c1[C@H](OC(C)(C)C)C(=O)O [Example 425]	34.5
Cc1nc2c(cc(-c3ccnc(-c4ccc5c(cnn5C)c4)c3)n2C)c(C)c1[C@H](OC(C)(C)C)C(=O)O [Example 426]	45000
Cc1nc2c(cc(-c3ccnc(-c4ccc5c(cnn5C)c4)c3)n2C)c(-c2ccc3c(c2C)OCCO3)c1[C@H](OC(C)(C)C)C(=O)O [Example 427]	2.7
Cc1nc2c(cc(-c3ccnc(-c4ccc5c(cnn5C)c4)c3)n2C)c(-c2ccc3c(c2)CCCO3)c1[C@H](OC(C)(C)C)C(=O)O [Example 428]	4.6
Cc1nc2c(cc(-c3ccnc(N4CCCN(C5COC5)CC4)c3)n2C)c(-c2ccc3c(c2)CCCO3)c1[C@H](OC(C)(C)C)C(=O)O [Example 429]	75
Cc1nc2c(cc(-c3ccnc(N4CCCN(C5COC5)CC4)c3)n2C)c(-c2ccc3c(c2C)CCCO3)c1[C@H](OC(C)(C)C)C(=O)O [Example 430]	16.3
Cc1nc2c(cc(-c3ccnc(N4CCCN(C5COC5)CC4)c3)n2C)c(-c2ccc(Cl)cc2)c1[C@H](OC(C)(C)C)C(=O)O [Example 431]	143
Cc1ccc(-c2c([C@H](OC(C)(C)C)C(=O)O)c(C)nc3c2cc(-c2ccnc(N4CCCN(C5COC5)CC4)c2)n3C)cc1 [Example 432]	200
Cc1nc2c(cc(-c3ccnc(N4CCCN(C5COC5)CC4)c3)n2C)c(-c2cc(F)c3c(c2C)NCCO3)c1[C@H](OC(C)(C)C)C(=O)O [Example 433]	127
Cc1nc2c(cc(-c3ccnc(N4CCCN(C5COC5)CC4)c3)n2C)c(-c2ccc3c(c2C)NCCO3)c1[C@H](OC(C)(C)C)C(=O)O [Example 434]	51.6
Cc1nc2c(cc(-c3ccnc(N4CCCN(C5COC5)CC4)c3)n2C)c(-c2ccccc2)c1[C@H](OC(C)(C)C)C(=O)O [Example 435]	3010
Cc1nc2c(cc(-c3ccnc(-c4ccc5c(cnn5C)c4)c3)n2C)c(C2=CCC(C)(C)CC2)c1[C@H](OC(C)(C)C)C(=O)O [Example 436]	5.9
Cc1nc2c(cc(-c3ccnc(-c4ccc5c(cnn5C)c4)c3)n2C)c(-c2ccc(Cl)cc2O)c1[C@H](OC(C)(C)C)C(=O)O [Example 437]	38
CCO[C@H](C(=O)O)c1c(C)nc2c(cc(-c3ccnc(-c4ccc5c(cnn5C)c4)c3)n2C)c1-c1cc(F)c2c(c1C)CCCO2 [Example 438]	4.9
CCO[C@H](C(=O)O)c1c(C)nc2c(cc(-c3nnc(-c4ccc5c(cnn5C)c4)o3)n2C)c1-c1cc(F)c2c(c1C)CCCO2 [Example 439]	3
CCO[C@H](C(=O)O)c1c(C)nc2c(cc(-c3nnc(N4CCN(C5CCOCC5)CC4)o3)n2C)c1-c1cc(F)c2c(c1C)CCCO2 [Example 440]	348
Cc1nc2c(cc(-c3nnc(N4CCN(C5CCOCC5)CC4)o3)n2C)c(-c2cc(F)c3c(c2C)CCCO3)c1[C@H](OC(C)C)C(=O)O [Example 441]	160
Cc1nc2c(cc(-c3nnc(-c4ccc5c(cnn5C)c4)o3)n2C)c(-c2cc(F)c3c(c2C)CCCO3)c1[C@H](OC(C)C)C(=O)O [Example 442]	5.1

Source: patent US20150191469A1, “COMPOUNDS AND METHODS FOR TREATING HIV” (priority 2012, published 2015)
